From BindingDB's records for patent US11198695 (SHIONOGI & CO., LTD., 2021) come the findings set out here.

The assay deals with 2-acylglycerol O-acyltransferase 2 (Homo sapiens, UniProt Q3SYC2). The assay can be described thus: Inhibitory Activity. The procedure: Solutions of the compounds of the present invention in DMSO were each aliquoted into 0.2-μL portions in a 384-well polystyrene microplate produced by Corning Incorporated, and 5 μL of an enzyme solution prepared with an assay buffer (100 mmol/L phosphate buffer (pH 7.4) containing 2 mmol/L DTT) and 5 μL of a substrate solution (100 mmol/L phosphate buffer (pH 7.4), 30 μmol/L 2-Oleoylglycerol, 10 μmol/L Oleoyl-CoA) were added thereto, and the resultant was stirred and centrifuged, and incubated in a moist chamber at room temperature for 1 hour. After enzymatic reaction, 50 μL of a quenching solution (containing 0.2 μmol/L Diolein-d5, 0.4% formic acid, and 50% isopropanol) containing Internal Standard (IS) was added to terminate the reaction, and the resultant was sealed in a plate produced by Shimadzu GLC Ltd., and then stirred and centrifuged, and measurement was performed by using an electrospray ionization method with a RapidFire360 and Agilent 6550 Q-TOF mass spectrometer. Diolein as a reaction product (P) of 2-Oleoylglycerol as the substrate and an ammonium adduct ion of the IS were detected, and the peak intensity ratio, P/IS, was calculated from the peak heights to evaluate the inhibitory activity. Inhibitory activities with/without addition of enzyme were defined as Control (+)/Control (−), respectively, and the respective % inhibitions were defined as 0% inhibition and 100% inhibition. The inhibitory activity was calculated from formula below with TIBCO Spotfire (produced by TIBCO Software Inc.):Inhibitory activity (%)=[1−{Sample−Control(−)}/{Control(+)−Control(−)}]*100where Sample indicates a peak intensity ratio: P/IS, when the compound of the present invention was added.
Chain of 2-acylglycerol O-acyltransferase 2 (Q3SYC2 whole entry): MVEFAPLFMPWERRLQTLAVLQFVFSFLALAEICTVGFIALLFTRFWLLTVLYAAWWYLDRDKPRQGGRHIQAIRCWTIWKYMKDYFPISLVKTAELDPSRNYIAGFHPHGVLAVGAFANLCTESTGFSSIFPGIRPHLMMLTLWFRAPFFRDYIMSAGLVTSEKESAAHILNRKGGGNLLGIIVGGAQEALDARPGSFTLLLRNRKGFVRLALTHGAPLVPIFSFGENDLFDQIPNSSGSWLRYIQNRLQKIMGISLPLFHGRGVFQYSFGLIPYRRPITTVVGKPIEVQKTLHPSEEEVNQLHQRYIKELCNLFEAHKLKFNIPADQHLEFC

Some results are limits rather than exact numbers.

Turning to `COc1ccc(-n2nc3c(c2NC(=O)CS(C)(=O)=O)C(=O)N[C@]2(CCc4cc(OCC(F)(F)F)ccc42)C3)cc1` [US11198695, Example I-268], it took 26 nM to reach half-maximal inhibition (IC50).
As to `C#Cc1ccc(-n2nc3c(c2C(=O)NS(=O)(=O)C2CC2)C(=O)N[C@@]2(CCc4cc(OCC(F)(F)F)ccc42)C3)nc1` [US11198695, Example II-201], inhibition was half-maximal at 12.1 nM (IC50).
For `CS(=N)(=O)CC(=O)Nc1c2c(nn1-c1ccc(C(F)F)nn1)C[C@]1(CCc3cc(OCC(F)(F)F)ccc31)NC2=O` (stereo partly drawn) [US11198695, Example II-281] the value was less than 1 nM.
